Laboratory results as given in ChEMBL document CHEMBL4715733, “Nitrobenzofurazan derivatives of N'-hydroxyamidines as potent inhibitors of indoleamine-2,3-dioxygenase 1” (Eur J Med Chem, 2016).

Legend:
[1] = biological target: T1, Indoleamine 2,3-dioxygenase 1 (Homo sapiens, UniProt P14902); assay: Inhibition of recombinant human IDO1 assessed as N-formylkynurenine formation using L-tryptophan as substrate measured after 1 hr by UV-vis spectrophotometric analysis
[2] = biological target: Tryptophan 2,3-dioxygenase (Homo sapiens, UniProt P48775); assay: Inhibition of recombinant human TDO assessed as N-formylkynurenine formation using L-tryptophan as substrate measured after 1 hrs by UV-vis spectrophotometric analysis
Chain of Tryptophan 2,3-dioxygenase (P48775 whole entry): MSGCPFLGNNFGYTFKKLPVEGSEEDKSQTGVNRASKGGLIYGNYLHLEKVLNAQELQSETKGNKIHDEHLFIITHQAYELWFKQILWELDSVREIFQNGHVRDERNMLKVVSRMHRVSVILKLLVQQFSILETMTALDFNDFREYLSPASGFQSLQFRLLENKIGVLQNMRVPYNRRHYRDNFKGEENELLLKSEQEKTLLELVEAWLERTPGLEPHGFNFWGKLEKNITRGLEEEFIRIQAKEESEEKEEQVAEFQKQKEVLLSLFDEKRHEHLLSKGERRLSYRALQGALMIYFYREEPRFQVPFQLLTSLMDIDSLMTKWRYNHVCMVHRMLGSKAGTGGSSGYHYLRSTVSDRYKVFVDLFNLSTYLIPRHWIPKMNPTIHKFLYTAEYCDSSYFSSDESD

[3] = biological target: T1, Indoleamine 2,3-dioxygenase 1; assay: Inhibition of human IDO1 in IFN-gamma-induced human MDA-MB-231 cells assessed as N-formylkynurenine formation using L-tryptophan as substrate pretreated for 4 hrs followed substrate addition measured after 5 hrs by UV-vis spectrophotometric analysis; format: cell-based
[4] = biological target: T1, Indoleamine 2,3-dioxygenase 1; assay: Inhibition of recombinant human IDO1 assessed as N-formylkynurenine formation using L-tryptophan as substrate measured after 1.5 hrs by HPLC analysis

T1 sequence (P14902 whole entry): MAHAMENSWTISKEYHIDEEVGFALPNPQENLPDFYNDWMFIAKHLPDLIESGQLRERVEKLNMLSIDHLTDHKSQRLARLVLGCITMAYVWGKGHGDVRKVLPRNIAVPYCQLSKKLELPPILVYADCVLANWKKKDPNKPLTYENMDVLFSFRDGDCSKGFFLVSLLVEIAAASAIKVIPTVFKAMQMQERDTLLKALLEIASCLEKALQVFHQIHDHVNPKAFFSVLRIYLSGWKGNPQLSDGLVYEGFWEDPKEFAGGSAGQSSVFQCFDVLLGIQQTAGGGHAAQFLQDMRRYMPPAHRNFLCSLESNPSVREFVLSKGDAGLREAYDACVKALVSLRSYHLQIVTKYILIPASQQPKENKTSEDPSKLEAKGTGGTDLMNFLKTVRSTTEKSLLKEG

Structure (SMILES) | IC50 [1] | IC50 [2] | IC50 [3] | IC50 [4]
O=[N+]([O-])c1ccc(N/C(=N\O)c2ccc(Cl)cc2)c2nonc12 | 0.113 µM | 40 µM | – | –
O=[N+]([O-])c1ccc(N/C(Cc2ccc(Br)cc2)=N\O)c2nonc12 | 0.112 µM | 43 µM | – | –
O=[N+]([O-])c1ccc(N/C(=N\O)c2cccc(Br)c2)c2nonc12 | 0.105 µM | 20 µM | – | –
Cc1cccc(/C(=N/O)Nc2ccc([N+](=O)[O-])c3nonc23)c1 | 0.163 µM | – | – | –
O=[N+]([O-])c1ccc(N/C(=N\O)c2ccc(F)c(Cl)c2)c2nonc12 | 0.158 µM | – | – | –
O=[N+]([O-])c1ccc(N/C(Cc2ccccc2F)=N\O)c2nonc12 | 0.102 µM | 30 µM | 0.131 µM | 0.075 µM
COc1ccc(C/C(=N/O)Nc2ccc([N+](=O)[O-])c3nonc23)cc1 | 0.128 µM | – | – | –
O=[N+]([O-])c1ccc(N/C(=N\O)c2ccc(F)cc2)c2nonc12 | 0.1 µM | 21 µM | 0.125 µM | 0.06 µM
O=[N+]([O-])c1ccc(N/C(=N\O)c2ccccc2Cl)c2nonc12 | 0.135 µM | – | – | –
O=[N+]([O-])c1ccc(N/C(Cc2ccc(F)cc2F)=N\O)c2nonc12 | 0.16 µM | 19 µM | – | –
O=[N+]([O-])c1ccc(N/C(Cc2ccc(Cl)c(Cl)c2)=N\O)c2nonc12 | 0.039 µM | 32 µM | 0.071 µM | 0.053 µM
O=[N+]([O-])c1ccc(N/C(=N\O)c2ccc(F)c(Br)c2)c2nonc12 | 0.092 µM | 47 µM | 0.107 µM | 0.106 µM
O=[N+]([O-])c1ccc(N/C(=N\O)c2ccc(Br)cc2)c2nonc12 | 0.117 µM | 50 µM | – | –
O=[N+]([O-])c1ccc(N/C(=N\O)c2cccc(F)c2)c2nonc12 | 0.075 µM | 45 µM | 0.245 µM | 0.084 µM
O=[N+]([O-])c1ccc(N/C(=N\O)c2ccccc2F)c2nonc12 | 0.063 µM | 110 µM | 0.131 µM | 0.056 µM
Cc1ccc(/C(=N/O)Nc2ccc([N+](=O)[O-])c3nonc23)cc1 | 0.204 µM | – | – | –
O=[N+]([O-])c1ccc(N/C(Cc2cccc(Cl)c2)=N\O)c2nonc12 | 0.199 µM | – | – | –
O=[N+]([O-])c1ccc(N/C(=N\O)c2ccccc2Br)c2nonc12 | 0.08 µM | 25 µM | 0.066 µM | 0.064 µM
O=[N+]([O-])c1ccc(N/C(Cc2ccccc2)=N\O)c2nonc12 | 0.307 µM | – | – | –
O=[N+]([O-])c1ccc(N/C(Cc2ccc(Cl)cc2)=N\O)c2nonc12 | 0.127 µM | 51 µM | 0.11 µM | 0.078 µM
Nc1nonc1C(=NO)Nc1ccc(F)c(Cl)c1 | – | 24 µM | – | –
O=[N+]([O-])c1ccc(N/C(=N\O)c2ccccc2)c2nonc12 | 0.268 µM | – | – | –
O=[N+]([O-])c1ccc(N/C(=N\O)c2cccc(Cl)c2)c2nonc12 | 0.184 µM | – | – | –
O=[N+]([O-])c1ccc(N/C(Cc2cccc(F)c2)=N\O)c2nonc12 | 0.131 µM | – | – | –
O=[N+]([O-])c1ccc(N/C(Cc2ccc(F)c(F)c2)=N\O)c2nonc12 | 0.059 µM | 94 µM | 0.05 µM | 0.049 µM
O=[N+]([O-])c1ccc(N/C(Cc2ccc(F)cc2)=N\O)c2nonc12 | 0.098 µM | 65 µM | 0.151 µM | 0.073 µM
